Measurements taken from patent US8722580B2, “Agent for inhibiting cytokinin signaling” (Sumitomo Chemical Company, Limited, priority 2006, dated 2014).

How the values were obtained:
cytokinin receptor CRE1 = target: T1, cytokinin receptor CRE1 (Arabidopsis thaliana, UniProt Q9C5U0, S567G/T1018A); experiment: Inhibition of intracellular signaling from plant-derived cytokinin receptor, growth of transformed yeast cell TM182-CRE1; format: cell-based; settings: trans-zeatin 0.6 ppm, chemical substance 2 ppm; for Relative growth rate (%) in test section of test substance to control section, Transformed cell TM182-CRE1: 30° C., 24 hours, turbidity OD 600; for Activity (%) of test substance for inhibiting intracellular signaling from plant-derived cytokinin receptor of cell: = 100 − relative growth rate of TM182-CRE1
T1 construct: expressed in transfected cells; host or cells: Saccharomyces cerevisiae TM182 (sln1Δ) transformed with p415CYC-CRE1
Experimental: (§1) The transformed cell TM182-CRE1 and the transformed cell TM182-p415CYC1 obtained in Example 6 were each inoculated in 10 ml of a DOLU+Gal medium, and preincubated at 30° C. for 18 hours to obtain a preincubation liquid for each of the transformed cells. The preincubation liquid was diluted with a DOLU+Glu medium for the transformed cell TM182-CRE1 or with a DOLU+Gal medium for the transformed cell TM182-p415CYC1 until OD600=0.1 was reached, to obtain a preincubation dilution for each of the transformed cells.
(§2) To each well of a 96-well plate was added 1 μl of a 200 ppm solution of a test substance in dimethyl sulfoxide (DMSO) to prepare an Assay plate. At the same time, as controls, only 1 μl of DMSO was added to a part of wells. An assay plate for the transformed cell TM182-CRE1 and an assay plate for the transformed cell TM182-p415CYC1 were prepared.
(§3) A 10,000 ppm solution of trans-zeatin (cytokinin) in DMSO was 50-fold diluted with a DOLU+Gul medium to 200 ppm. The 200 ppm trans-zeatin solution was added in an amount of 3/1,000 volume to each of the above-described preincubation dilution to prepare each preincubation dilution containing trans-zeatin at 0.6 ppm. The 0.6 ppm preincubation dilution was added in an amount of 100 μl to each wells of the assay plate for each transformed cell. The plates were incubated at 30° C. for 24 hours. Then, turbidity (OD 600) of each well was measured by using a plate reader. The activity of the test substance for inhibiting intracellular signaling from a plant-derived cytokinin receptor of a cell was tested by comparing the measured turbidity with the turbidity of the control well.
(§4) (Relative growth rate in test section to control section) [%]=[(Turbidity in test section)−(Turbidity in blank)]/[(Turbidity in control section)−(Turbidity in blank)]×100 (Activity of inhibiting intracellular signaling from plant-derived cytokinin receptor of cell) [%]=100−(Relative growth rate in test section to control section)
(§5) In all cases, the existing concentration of trans-zeatin was adjusted to 0.6 ppm and the existing concentration of a chemical substance was adjusted to 2 ppm.
(§6) In all cases, the existing concentration of trans-zeatin was adjusted to 0.6 ppm and the existing concentration of a chemical substance was adjusted to 2 […].

[1] = tested on: transformed cell TM182-p415CYC1; experiment: Control growth test with transformed yeast cell TM182-p415CYC1 (toxicity to yeast); format: cell-based; settings: trans-zeatin 0.6 ppm; chemical substance 2 ppm; 30° C., 24 hours; turbidity OD 600
Experimental: as §1, §2, §3, §4, §5, §6

Arabidopsis thaliana [2] = experiment: Root growth-promoting activity test (Example 9); format: in vivo; settings: main root length vs control section, 22° C., 10 days
Experimental: (§7) Enshi standard medium having the following composition (see Table 10) was prepared. To cluster tubes was dispensed each 4 μl of a solution of a chemical substance in DMSO to a final concentration of 0.001 ppm to 10 ppm, and then, was dispensed each 600 μl of the sterilized Enshi standard medium. Then the resulting solution was well mixed. In each of the cluster tubes, 10-20 seeds of Arabidopsis thaliana were sown, and cultured at 22° C. for 10 days in the light. Then, the length of main roots (average main roots) generated from the seeds of Arabidopsis thaliana was measured. An average of eight repeats was determined, and a root growth rate was determined according to the following equation.
(§8) Root growth rate (%)=(Average main root length in chemical substance-treated section)/(Average main root length in control section)×100

Arabidopsis thaliana [3] = experiment: Root growth-promoting activity test (Example 22); format: in vivo; settings: main root length vs control section, 22° C., 10 days
Experimental: as §7, with “18)” for “10)”
as §8
Enshi standard medium determined having the following composition (Table 18) was prepared. A DMSO solution of a chemical substance was dispensed by 4 μl to cluster tubes to a final concentration of 0.001 ppm to 10 ppm and the sterilized Enshi standard medium was dispensed by 600 μl and then the resulting solution was well mixed. 10-20 seeds of A. thaliana per cluster tube were sown in the cluster tubes. After culture at 22° C. for 10 days in bright light, the length of main roots (average main roots) took from seeds of A. thaliana was measured. An average of eight repeats was determined and the root growth rate was determined.
Root growth rate (%)=(Average main root length of chemical substance-treated section)/(Average main root length of control section)×100

[4] = test final concentration 0.625 ppm (concentration with highest root growth rate)
[5] = test final concentration 0.625 ppm (highest root growth rate)
[6] = test final concentration 5 ppm (concentration with highest root growth rate)
[7] = test final concentration 5 ppm (highest root growth rate)
[8] = test final concentration 2.5 ppm (concentration with highest root growth rate)
[9] = test final concentration 2.5 ppm (highest root growth rate)
[10] = test final concentration 1.25 ppm (concentration with highest root growth rate)
[11] = test final concentration 1.25 ppm (highest root growth rate)

T1 sequence (Q9C5U0 24-1080 S567G/T1018A): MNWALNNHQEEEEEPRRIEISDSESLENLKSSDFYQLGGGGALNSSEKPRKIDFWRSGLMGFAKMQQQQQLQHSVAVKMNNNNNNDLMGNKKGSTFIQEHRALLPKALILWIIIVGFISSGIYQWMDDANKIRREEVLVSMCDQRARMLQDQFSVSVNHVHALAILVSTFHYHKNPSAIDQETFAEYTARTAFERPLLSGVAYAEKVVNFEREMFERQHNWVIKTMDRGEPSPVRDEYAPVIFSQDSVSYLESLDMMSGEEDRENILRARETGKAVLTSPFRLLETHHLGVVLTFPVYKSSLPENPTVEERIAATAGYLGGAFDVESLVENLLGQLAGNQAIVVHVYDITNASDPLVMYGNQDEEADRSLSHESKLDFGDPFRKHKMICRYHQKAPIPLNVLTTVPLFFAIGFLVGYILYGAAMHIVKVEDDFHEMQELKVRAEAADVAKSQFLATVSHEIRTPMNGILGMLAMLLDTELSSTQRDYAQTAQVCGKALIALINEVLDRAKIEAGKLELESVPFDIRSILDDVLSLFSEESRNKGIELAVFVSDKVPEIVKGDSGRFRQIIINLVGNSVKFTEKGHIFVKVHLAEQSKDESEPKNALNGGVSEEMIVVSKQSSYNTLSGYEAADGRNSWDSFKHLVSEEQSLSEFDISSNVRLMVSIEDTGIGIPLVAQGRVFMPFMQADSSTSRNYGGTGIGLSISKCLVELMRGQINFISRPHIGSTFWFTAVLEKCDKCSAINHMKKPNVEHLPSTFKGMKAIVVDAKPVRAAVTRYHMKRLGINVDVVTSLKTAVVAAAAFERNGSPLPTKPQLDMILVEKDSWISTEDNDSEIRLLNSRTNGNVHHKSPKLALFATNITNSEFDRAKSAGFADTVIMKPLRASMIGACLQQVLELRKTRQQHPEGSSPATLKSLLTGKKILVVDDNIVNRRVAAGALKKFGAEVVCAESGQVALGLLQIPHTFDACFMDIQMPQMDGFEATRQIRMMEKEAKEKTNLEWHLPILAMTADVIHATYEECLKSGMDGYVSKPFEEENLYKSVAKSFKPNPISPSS

| Compound | Relative growth rate (%) in test section of test substance to control section, Transformed cell TM182-CRE1 (cytokinin receptor CRE1) [%] | Activity (%) of test substance for inhibiting intracellular signaling from plant-derived cytokinin receptor of cell (cytokinin receptor CRE1) [%] | Relative growth rate (%) in test section of test substance to control section, Transformed cell TM182-p415CYC1 [1] [%] | further results |
| --- | --- | --- | --- | --- |
| Clc1nc(-c2ccccc2)c2cccc(Cl)c2n1 [Ia1-11, 2,8-dichloro-4-phenylquinazoline] | – | – | – | melting point: 154.4 °C |
| COC(=O)CNc1nc(-c2ccccc2)c2cc(Cl)ccc2n1 [Ic3-42] | −0.7 | 100.7 | 111.5 | Root growth-promoting activity (root growth rate) (Arabidopsis thaliana [2]; [4]): 128.6%; Root growth-promoting activity (root growth rate) (Arabidopsis thaliana [3]; [5]): 128.6% |
| Clc1cc(Cl)c2nc(Cl)nc(-c3ccccc3)c2c1 [Ia1-12, 2,6,8-trichloro-4-phenylquinazoline] | – | – | – | melting point: 160.3 °C |
| OCCCCCNc1nc(-c2ccccc2)c2cc(Cl)ccc2n1 [Ic3-5] | 3.5 | 96.5 | 115.4 | Root growth-promoting activity (root growth rate) (Arabidopsis thaliana [2]; [4]): 134.0%; Root growth-promoting activity (root growth rate) (Arabidopsis thaliana [3]; [5]): 134.0% |
| Clc1ccc2nc(NCC3CCCO3)nc(-c3ccccc3)c2c1 (stereo not drawn) [Ic3-37] | 3.5 | 96.5 | 114.2 | Root growth-promoting activity (root growth rate) (Arabidopsis thaliana [2]; [6]): 138.5%; Root growth-promoting activity (root growth rate) (Arabidopsis thaliana [3]; [7]): 138.5% |
| CC(=CCNc1nc(-c2ccccc2)c2cc(Cl)ccc2n1)CO [Ic3-18] | 4.0 | 96.0 | 105.3 | Root growth-promoting activity (root growth rate) (Arabidopsis thaliana [2]; [8]): 139.5%; Root growth-promoting activity (root growth rate) (Arabidopsis thaliana [3]; [9]): 139.5% |
| COCCNc1nc(-c2ccccc2)c2cc(Cl)ccc2n1 [Ic3-7] | 2.8 | 97.2 | 104.1 | Root growth-promoting activity (root growth rate) (Arabidopsis thaliana [2]; [10]): 142.5%; Root growth-promoting activity (root growth rate) (Arabidopsis thaliana [3]; [11]): 142.5% |
| Clc1ccc2nc(NCCSSCCNc3nc(-c4ccccc4)c4cc(Cl)ccc4n3)nc(-c3ccccc3)c2c1 [Ic3-15, bis[2-(6-chloro-4-phenyl-2-quinazolinyl)aminoethyl]disulfide] | – | – | – | activity at 5 ppm (Arabidopsis thaliana [2]; Arabidopsis thaliana, 240 h, test final concentration 5 ppm (concentration with highest root growth rate)): 131%; melting point: 159.2 °C |
| OCCOCCNc1nc(-c2ccccc2)c2cc(Cl)ccc2n1 [Ic3-40] | 0.7 | 99.3 | 123.4 | Root growth-promoting activity (root growth rate) (Arabidopsis thaliana [2]; [4]): 125.8%; Root growth-promoting activity (root growth rate) (Arabidopsis thaliana [3]; [5]): 125.8% |
| Nc1nc(-c2ccccc2)c2cc(Cl)cc(Cl)c2n1 [Ic12-4, 2-amino-6,8-dichloro-4-phenylquinazoline] | – | – | – | melting point: 212.7 °C |
| SCCNc1nc(-c2ccccc2)c2cc(Cl)ccc2n1 [Ic3-13, 6-chloro-2-(2-mercaptoethylamino)-4-phenylquinazoline] | – | – | – | activity at 10 ppm (Arabidopsis thaliana [2]; Arabidopsis thaliana, 240 h, test final concentration 10 ppm (concentration with highest root growth rate)): 140%; melting point: 165.9 °C |
| CC(CO)Nc1nc(-c2ccccc2)c2cc(Cl)ccc2n1 (stereo not drawn) [Ic3-44] | 7.0 | 93.0 | 101.4 | Root growth-promoting activity (root growth rate) (Arabidopsis thaliana [2]; [10]): 126.5%; Root growth-promoting activity (root growth rate) (Arabidopsis thaliana [3]; [11]): 126.5% |
| OCC(O)CNc1nc(-c2ccccc2)c2cc(Cl)ccc2n1 (stereo not drawn) [Ic3-41] | 8.8 | 91.2 | 123.3 | Root growth-promoting activity (root growth rate) (Arabidopsis thaliana [2]; [6]): 134.5%; Root growth-promoting activity (root growth rate) (Arabidopsis thaliana [3]; [7]): 134.5% |
| OCCCNc1nc(-c2ccccc2)c2cc(Cl)cc(Cl)c2n1 [Ic12-1] | 2.8 | 97.2 | 106.3 | Root growth-promoting activity (root growth rate) (Arabidopsis thaliana [2]; [8]): 184.6%; Root growth-promoting activity (root growth rate) (Arabidopsis thaliana [3]; [9]): 184.6% |
| COCCCNc1nc(-c2ccccc2)c2cc(Cl)ccc2n1 [Ic3-38] | 1.2 | 98.8 | 99.4 | Root growth-promoting activity (root growth rate) (Arabidopsis thaliana [2]; [6]): 141.9%; Root growth-promoting activity (root growth rate) (Arabidopsis thaliana [3]; [7]): 141.9% |
| CCOCCCNc1nc(-c2ccccc2)c2cc(Cl)ccc2n1 [Ic3-46] | 1.3 | 98.7 | 92.2 | Root growth-promoting activity (root growth rate) (Arabidopsis thaliana [2]; [8]): 121.6%; Root growth-promoting activity (root growth rate) (Arabidopsis thaliana [3]; [9]): 121.6% |
| CC(CO)CCNc1nc(-c2ccccc2)c2cc(Cl)ccc2n1 (stereo not drawn) [Ic3-12] | 5.6 | 94.4 | 90.9 | Root growth-promoting activity (root growth rate) (Arabidopsis thaliana [2]; [10]): 128.9%; Root growth-promoting activity (root growth rate) (Arabidopsis thaliana [3]; [11]): 128.9% |
| OCCCCCCNc1nc(-c2ccccc2)c2cc(Cl)ccc2n1 [Ic3-11] | 3.9 | 96.1 | 84.6 | Root growth-promoting activity (root growth rate) (Arabidopsis thaliana [2]; [10]): 128.2%; Root growth-promoting activity (root growth rate) (Arabidopsis thaliana [3]; [11]): 128.2% |
